{"source": "patent US7815928B2", "about": "“Device for local administration of solid or semi-solid formulations and delayed-release formulations for proposal parenteral administration and preparation process” (Societe de Conseils de Recherches et d'Applications …, priority 1996, dated 2010)", "origin": "cited, not measured here", "tested_on": "smooth muscle cells", "conditions": "after endothelial damage"}
{"substance": "heparin", "values": [{"measurement": "proliferation of smooth muscle cells", "value": "inhibits the proliferation"}]}
